{
  "source": "patent US5827837A",
  "about": "“Polyanion anti-inflammatory agents” (priority 1996, dated 1998)",
  "test_system": "PMN recovered in broncho-alveolar lavage fluid",
  "assay": "Lung inflammation by intratracheal instillation of endotoxin, PMN in broncho-alveolar lavage fluid",
  "format": "in vivo",
  "settings": "rat, i.v. at 2 and 4 hours, 40 μmol/kg total, at 6 hours, 2 experiments",
  "from_the_text": "In the first model, mice were given intraperitoneal (i.p.) injections of 3% thioglycollate broth (FIG. 4, left panel) which results in an accumulation of PMN, the early phase of which is thought to depend in large part on L-(Lewinsohn, D. M., et al., J. Immunol., 138:4313, 1987; Watson, S. R., et al., Nature, 349:164, 1991), and P-selectin (Mulligan, M. S., et al., J. Clin. Invest., 90:1600, 1992). […] In a rat model of lung inflammation involving intratracheal instillation of endotoxin (Ulich, T. R., et al., Am. J. Pathol, 138:1485, 1991), InsP6 (i.v. injections at 2 and 4 hours, 40 μmol/kg total) reduced the number of PMN recovered in broncho-alveolar lavage fluid at 6 hours (59±8% inhibition, 2 experiments). The number of peripheral blood PMN was not modified by InsP6 treatment.",
  "data": [
    {"smiles": "O=P(O)(O)O[C@H]1[C@H](OP(=O)(O)O)[C@@H](OP(=O)(O)O)[C@H](OP(=O)(O)O)[C@@H](OP(=O)(O)O)[C@H]1OP(=O)(O)O", "note": "[InsP6, myo-inositol hexakisphosphate]", "values": [
      {"measurement": "inhibition of PMN recovered in broncho-alveolar lavage fluid", "value": "59±8", "unit": "%"}
    ]}
  ]
}
